Laboratory results: US20130059787A1, “METHODS OF USING HUMAN PROTEIN KINASE C DELTA VIII AS A BIOMARKER” (UNITED STATES DEPARTMENT OF VETERAN AFFAIRS, priority 2010, published 2013)

Legend:
[1] = system: PKCδVIII mRNA; experiment: Quantitative real-time RT-PCR (SYBR Green) in primary human neuronal cells from hippocampus; type: cell-based; details: RA about 10 μM, about 24 h
Source text: (§1) FIG. 1 is a series of images illustrating the alternative splice site in human PKC δ. (a) schematic of alternative 5′ splice site selection in human PKCδ pre-mRNA exon 10 that results in the generation of PKCδI mRNA and PKCδVIII mRNA, which differ by about 93 bp in the V3 hinge region. RA promotes expression of PKCδVIII mRNA. SSI: 5′ splice site I; SSII: 5′ splice site II. (b) schematic of the primers specific for PKC δI and PKC δVIII used in real time RT-PCR such that they span the exon-exon boundaries. (c) primary human neuronal cells from hippocampus were treated with or without RA (about 10 μM) for about 24 h. […]
(§2) cDNA (about 2 μl) was amplified by real-time quantitative PCR using Syber (SYBR) Green with an ABI PRISM 7900 sequence detection system (PE Applied Biosystems, Foster City, Calif.) as described previously to quantify absolute levels of PKCδI and PKCδVIII mRNA in the samples (Jiang, K., Apostolatos, A. H., Ghansah, T., Watson, J. E., Vickers, T., Cooper, D. R., Epling-Burnette, P. K., and Patel, N. A. (2008) Biochemistry 47, 787-797). […]
(§3) sense primer 5′-[…]-3′(SEQ ID No: 6) and antisense primer 5′-[…]-3′ (SEQ ID No: 7). […] Absolute quantification of mRNA expression levels for PKCδI and PKCδVIII was calculated by normalizing the values to GAPDH. The results were analyzed with two-tailed Student's t test using PRISM4 statistical analysis software (GraphPad, San Diego, Calif.). […]

[2] = system: PKCδI mRNA; experiment: as above; type: cell-based; details: RA about 10 μM, about 24 h
Source text: as §1, §2, §3

[3] = system: PKCδVIII mRNA; details: RA about 24 h; Jiang et al. 2008; cited from earlier work
[4] = system: PKCδVIII; experiment: RT-PCR with human PKCδ primers in primary neuronal cells from hippocampus; type: cell-based; details: RA about 24 h
Description: FIG. 2 is a series of images indicating the expression of PKCδVIII. (a) an image showing that both PKCδI and PKCδVIII were detected and the levels of PKCδVIII increased with retinoic acid treatment. Primary neuronal cells from hippocampus were treated with RA for about 24 h. Total RNA was extracted and RT-PCR performed with primers described in FIG. 1 which detect both PKCδI and PKCδVIII simultaneously. (b) an image showing that the expression of PKCδVIII is tissue-specific with the highest levels seen in the fetal brain. Human fetal tissue specific cdNAs were used in PCR analysis using PKCδVIII-specific primers. (i) Liver (ii) kidney (iii) heart (iv) spleen (v) brain. About five percent products were separated on PAGE and detected by silver nitrate staining […]
Using PKCδ primers, PKCδI and PKCδVIII are detected simultaneously: PKCδI is 368 bp and PKCδVIII is 461 bp. […] About 5% of products were resolved on 6% PAGE gels and detected by silver staining. The PCR reaction was optimized for linear range amplification to allow for quantification of products. […]
The inventors looked for the expression of PKCδ isozymes in primary neuronal cells to verify the expression pattern of PKCδVIII. […] PKCδI and PKCδVIII isoforms were detected and the levels of PKCδVIII increased with retinoic acid treatment (FIG. 2a). PKCδVIII was not detected in aorta smooth muscle cells or skeletal muscle cells (data not shown). […]

SMILES: CC1=C(/C=C/C(C)=C/C=C/C(C)=C/C(=O)O)C(C)(C)CCC1 [RA, all-trans-retinoic acid]
- absolute mRNA expression of PKCδVIII normalized to GAPDH [1]: increased
- absolute mRNA expression of PKCδI normalized to GAPDH [2]: remain constant
- expression of PKCδVIII in NT2 cells [3]: significantly increases
- levels of PKCδVIII (RT-PCR) [4]: increased
